Test results published in PMC2637266, “Quantification of gamma-secretase modulation differentiates inhibitor compound selectivity between two substrates Notch and amyloid precursor protein” (Molecular Brain, 2008).
Entries after “also recorded” stand apart in the source; their conditions may differ. Where two headings read alike, the source gives them in different places.

Legend:
[1] = biological target: T1, γ-secretase cleavage of APP C100-Flag (Homo sapiens, UniProt P49768); test: In vitro γ-secretase activity assay, Aβ generated from C100-Flag, ELISA; assay type: biochemical; conditions: for γ-secretase cleavage of APP in vitro at low concentrations: 0.1 nM to 10 nM; for IC50: C100-Flag, 37°C, 4 hr; for Aβ production in vitro, dose response: C100Flag, increasing concentrations
T1 construct: substrate made in E. coli
Method: To characterize the direct effect of two γ-secretase inhibitors cpd E and DAPT on APP/Notch cleavage, a conventional in vitro γ-secretase assay to quantify their inhibitory potency was used. The incubation of γ-secretase complex with purified substrates at 37°C for 4 hr was followed by Western Blot (WB) to determine the quantity of newly generated NICD. A newly generated band that corresponds to the predicted size of the NICD-Flag was detected (Fig. 1A and 1B).
Figure 1 Generation of NICD and Aβ from purified APP and Notch substrate C100 and N100 in an in vitro γ-secretase activity assay. The E. coli generated APP- and Notch-based, 100-residue γ-secretase substrates C100-Flag and N100-Flag were mixed with the membrane vesicles solubilized in CHAPSO after DMSO or compounds were added. The mixture was incubated at 37°C for 4 hours. A. A dose-dependent inhibition of NICD generation by DAPT. Generation of NICD was detected by Western blot (WB) with antibody 1744 specifically recognizing N-terminus of NICD. B. Generation of NICD was inhibited in the presence of 100 nM of cpd E. C. Levels of NICD determined by WB were quantified by densitometry (dotted line). Levels of Aβ generated from the γ-secretase cleavage of C100 in the presence of DAPT were determined by ELISA (solid line). […] D. NICD (dotted line) and Aβ (solid line) generation in the presence of cpd E were compared.
The same preparation of γ-secretase complex was mixed with C100Flag followed by ELISA to quantify the levels of newly generated Aβ.
The E. coli generated APP- and Notch-based, 100-residue γ-secretase substrates C100-Flag and N100-Flag were purified as previously described. C100-Flag substrate contains an initiating methionine, the 99 C-terminal residues of APP that start at the […], and a Flag tag. N100-Flag substrate contains a similar initiating methionine, 99 amino acids that start at the TACE cleavage site, and a Flag tag. The membrane vesicles were solubilized in 1% CHAPSO-HEPES and diluted in a final concentration of 0.2% CHAPSO-HEPES. Phosphatidylethanolamine (PE) and phosphatidylcholine (PC) were added to the final concentration of 0.02% PE and 0.08% PC. After adding DMSO or test compounds to the solubilized γ-secretase complex, substrate C100-Flag or N100-Flag was added to the mixture, then followed by incubation at 37°C for 4 hours. Two compounds have been used in this study, compound E (cpd E), {(S,S)-2-[2-(3,5-Difluorophenyl)-acetylamino]-N-(1-methyl-2-oxo-5-phenyl-2,3-dihydro-1H-benzo [e] [1,4] diazepin-3-yl)-propionamide} [57] and DAPT {N-[N-(3,5-Difluorophenacetyl-L-alanyl)]-S-phenylglycine t-Butyl Ester} [79]. Cpd E was provided by Dr. Michael Wolfe.
Sandwich ELISAs for Aβ were performed as described. The capture antibodies, 2G3 (to Aβ residues 33–40) and 4G8 (to Aβ residues 17–24), were used for Aβ40 and Aβ total species, respectively. The detecting antibodies were biotinylated 82E1 (to Aβ residues 1–16) for Aβ1–40/total or biotinylated 266 for Aβx-40 species. The use of mid-region and C-terminal capturing antibodies and N-terminal detecting antibody for chimeric "Notch-Aβ-like" peptide (Nβ*) has been documented. The combination of several capture/detecting antibodies are use to measure Aβ and Nβ* derived from different precursors. The capture antibody 2G3 and detecting antibody 82E1 were used for measuring Nβ* from APP-α-Notch expressing cells. Since the APP-α-NOTCH is the fusion protein with its juxtamembrane portion of the APP ectodomain (the α-secretase cleavage region) replaced by the corresponding sequence in Notch, the epitopes in APP sequence could still be recognized by 2G3 (C-terminus) and 82E1 (N-terminus). The capture antibody 4G8 and detecting antibody 82E1 were used for measuring Nβ* from APP-m-Notch expressing cells. […]

[2] = tested on: zebrafish embryos; test: Zebrafish embryo treatment, tail curvature phenotype; assay type: in vivo; conditions: 50 μM; for embryo morphology, tail curvature: 24 hpf to 48 hpf, 28°C; for embryo morphology, tail curvature at 4 dpf: kept for four days
Method: Measurements of in vitro γ-secretase activity and cell-based Aβ/NICD generation have shown different inhibition potencies. To examine the inhibitory effect in vivo, zebrafish embryos were treated with DAPT or cpd E. Because different γ-secretase inhibitors may impact various metabolic pathways in zebrafish embryos, especially during development, the phenotypes of zebrafish embryos treated with high concentrations of DAPT and cpd E were compared. The major phenotype we examined was curved tail caused by defective somitogenesis.
Figure 4 Treatment of zebrafish embryos with DAPT causes curved tails. A. A stock of DAPT or cpd E in DMSO was diluted in embryo medium, and increasing concentrations of DAPT or cpd E were applied to de-chorionated zebrafish embryos incubated at 28°C from 24 hpf to 48 hpf. Control embryos were mock-treated with embryo medium containing the same concentration of DMSO. […] B. DAPT- or cpd E-treated embryos were kept until 4 dpf, and images were acquired at 40 × magnification.
Zebrafish embryos were raised and staged according to Kimmel, et al.. Compounds were dissolved in egg water at various final concentrations, and 0.5% DMSO was used as a negative control. Prior to the treatment at 24 hour post fertilization, embryos were de-chorionated manually. Embryos were placed in a 24-well plate (5–6 embryos/well) and treated with the compound containing egg water. Embryos were incubated at 28°C, and photographic images were taken at 2 days and 4 days post fertilization (dpf).
Compound-treated embryos were observed under an OLYMPUS SZX12 microscope. For examination, embryos were removed from the compound containing medium and placed into 0.4% tricane (3-amino benzoic acidethylester, Sigma, St. Louis, MO) solution. Upon anesthetizing, embryos were placed in 3% methylcellulose for positioning and images were recorded with OLYMPUS Q-COLOR3 camera. Images were taken at the 40× magnification for embryos at 2 and 4 dpf.

T1 sequence (Q96BI3 whole entry, other chains not shown): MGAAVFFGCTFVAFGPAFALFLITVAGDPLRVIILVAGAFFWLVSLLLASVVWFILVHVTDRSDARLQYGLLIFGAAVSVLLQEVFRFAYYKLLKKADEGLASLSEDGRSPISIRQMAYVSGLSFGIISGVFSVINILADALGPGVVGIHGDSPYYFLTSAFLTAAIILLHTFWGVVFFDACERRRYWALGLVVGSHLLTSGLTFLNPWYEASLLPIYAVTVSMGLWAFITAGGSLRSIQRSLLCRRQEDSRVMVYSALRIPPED
T1 sequence (Q92542 34-709, other chains not shown, further chain): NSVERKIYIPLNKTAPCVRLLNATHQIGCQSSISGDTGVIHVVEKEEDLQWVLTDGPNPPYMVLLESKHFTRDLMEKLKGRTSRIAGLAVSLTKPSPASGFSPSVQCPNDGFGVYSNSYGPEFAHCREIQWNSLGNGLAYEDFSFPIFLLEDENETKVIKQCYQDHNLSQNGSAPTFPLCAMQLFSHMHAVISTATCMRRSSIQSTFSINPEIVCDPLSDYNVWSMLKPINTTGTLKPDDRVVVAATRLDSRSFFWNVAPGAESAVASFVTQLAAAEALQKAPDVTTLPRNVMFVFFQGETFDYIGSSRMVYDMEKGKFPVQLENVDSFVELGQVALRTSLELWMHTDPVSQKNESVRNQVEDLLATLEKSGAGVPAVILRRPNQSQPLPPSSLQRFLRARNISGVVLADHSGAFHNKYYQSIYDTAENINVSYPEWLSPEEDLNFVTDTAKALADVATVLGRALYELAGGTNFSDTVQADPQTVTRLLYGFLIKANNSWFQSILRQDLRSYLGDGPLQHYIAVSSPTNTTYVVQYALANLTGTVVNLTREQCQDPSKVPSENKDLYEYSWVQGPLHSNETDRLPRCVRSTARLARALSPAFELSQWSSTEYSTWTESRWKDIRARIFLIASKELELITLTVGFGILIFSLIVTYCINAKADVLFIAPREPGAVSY
T1 sequence (Q9NZ42 whole entry, other chains not shown, further chain): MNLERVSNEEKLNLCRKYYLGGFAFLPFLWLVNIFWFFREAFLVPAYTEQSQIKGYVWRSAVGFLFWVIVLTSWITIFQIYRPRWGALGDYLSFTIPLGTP

Row | Structure (SMILES) | γ-secretase cleavage of APP in vitro at low concentrations [1] | Aβ generation from APP C100 in vitro ([1]; 100 nM (0.1 μM)) | IC50 ([1]; read-out: IC50 for Aβ generation (levels of Aβ reduced to 50%) in vitro) | Aβ production in vitro, dose response [1] | embryo morphology, tail curvature [2] | embryo morphology, tail curvature ([2]; listed as Cpd E) | embryo morphology, tail curvature at 4 dpf [2] | Aβ production in vitro ([1]; 10 and 100 μM) | IC50 ([1]; read-out: concentration inhibiting levels of Aβ to 50% in vitro)
1 | C[C@H](NC(=O)Cc1cc(F)cc(F)c1)C(=O)N[C@H]1N=C(c2ccccc2)c2ccccc2N(C)C1=O [cpd E, (S,S)-2-[2-(3,5-Difluorophenyl)-acetylamino]-N-(1-methyl-2-oxo-5-phenyl-2,3-dihydro-1H-benzo [e] [1,4]diazepin-3-yl)-propionamide] | selectively inhibited the γ-secretase cleavage of APP | could almost deplete any Aβ generation; also recorded: completely blocked Aβ generation | 1 nM | dose-dependent reduction of Aβ production | lack of dramatic phenotypic alteration | did not show any curvature | minor effect on embryo morphology |  | 
2 | C[C@H](NC(=O)Cc1cc(F)cc(F)c1)C(=O)N[C@H](C(=O)OC(C)(C)C)c1ccccc1 [DAPT, N-[N-(3,5-Difluorophenacetyl-L-alanyl)]-S-phenylglycine t-Butyl Ester] | did not inhibit |  |  | dose-dependent reduction of Aβ production | much shorter and curved tail; also recorded: caused curved trunk and tails; also recorded: curvature of zebrafish tail was found |  | continued to show the curvature of the tails | complete depletion of Aβ production | 1000 nM
